What was measured:
Assay type in all cases: cell-based, human
[1] = tested on: umbilical cord blood-derived CD34+ hematopoietic stem cell; assay: Morphological change and polyploidization of CD34+ hematopoietic stem cells cocultured with OP9 stromal cells
Protocol: (§1) The OP9 stromal cell line was aliquoted into 6-well culture plate at a density of 1×10^5/well, and cultured for 24 hrs as a monolayer in a-MEM supplemented with 20% heat-inactivated FBS, 0.5% penicillin/streptomycin and 1.5 g/L sodium bicarbonate. When the OP9 stromal cell line was cultured as a monolayer, the media was replaced with StemSpan™ H3000 for CD34+ hematopoietic stem cell culture. Then, the CD34+ hematopoietic stem cells were aliquoted upper the op cells at a density of 3×10^5/well.
In order to confirm the distinct morphological change of the umbilical cord blood-derived CD34+ hematopoietic stem cell treated with the compound of Formula 1, the cells were treated with the compound of Formula 1 and the known hematopoietic stem cell differentiation inducers, CC100, CC200, IL-3, IL-6, TPO and SCF, so as to investigate morphological changes and polyploidization of the CD34+ hematopoietic stem cell.
The CD34+ hematopoietic stem cells cocultured with OP9 cells through Example 1 were treated with each of the materials. The cells were treated with each of the hematopoietic stem cell differentiation inducers at a following concentration; CC100 (rhFlt-3 ligand 100 ng/ml, SCF 100 ng/ml, IL-3 20 ng/ml, IL-6 20 ng/ml), CC200 (rhTPO 50 ng/ml, rhSCF 50 ng/ml, IL-3 10 ng/ml), Megacult-C (TPO 5 ng/ml, IL-3 1 ng/ml, IL-6 2 ng/ml), IL-3 of 10 ng/ml, IL-6 of 20 ng/ml, SCF of 50 ng/ml, and (R)-NALPCE of 45 μg/ml.
After 8 days, the cells were photographed by Mag. ×200 to examine the morphological changes (FIG. 1).
In addition, polyploidization of the cells was analyzed by FACS (flow cytometer). The cells were harvested and resuspended with 1×PBS containing 0.1% saponin. 10 mg/mL RNAse A and propidium iodide solution were added thereto. Thereafter, the cells were incubated at room temperature for 30 min. The cells were analyzed by FACS caliber flow cytometer and Cell quest software. Results are means±SD (n=3). Similar results were obtained in three independent experiments (FIG. 1).

[2] = tested on: umbilical cord blood-derived CD34+ hematopoietic stem cells; assay: CD41 / CD61 megakaryocyte-specific marker expression by FACS in CD34+ hematopoietic stem cells cocultured with OP9; conditions: FIG. 2
Protocol: as §1
In order to confirm whether the differentiation of the umbilical cord blood-derived CD34+ hematopoietic stem cells into megakaryocytes and platelets was induced by treatment of the compound of Formula 1, the cells were treated with the compound of Formula 1 and the known hematopoietic stem cell differentiation inducers, CC200 and Megacult-C, singly or in a mixture. Then, expression of megakaryocyte-specific marker, CD41 or CD61 was analyzed.
The CD34+ hematopoietic stem cells cocultured with OP9 cells through Example 1 were treated with each of the hematopoietic stem cell differentiation inducers at a following concentration; CC200 (rhTPO 50 ng/ml, rhSCF 50 ng/ml, IL-3 10 ng/ml), Megacult-C (TPO 5 ng/ml), and (R)-NALPCE 35 ug/ml in culture media.
After 8 days, the culture media were centrifuged (1,000 rpm, 10 min), and the cell pellets thus obtained were washed three times with PBS. The cells were incubated with 20 μl of Fluorescein isothiocyanate (FITC)-conjugated mouse anti-human monoclonal CD41 antibody (DAKOCycomation, Denmark) or 20 μl of Fluorescein isothiocyanate(FITC)-conjugated mouse anti-human monoclonal CD61 antibody (DAKOCycomation, Denmark) in 200 μl of 0.01% bovine serum albumin (BSA)-PBS at 37° C. for 30 min while spinning to realize homogeneous fluorescent staining. After centrifugation (1,000 rpm, 10 min), the cell pellets thus obtained were washed three times with 0.01% bovine serum albumin (BSA) in PBS. Fluorescence was analyzed on a fluorescence-activated cell sorter (FACS Aria) using a Cellquest program. Results are means±SD (n=3). […]

K562 cells [3] = assay: Oligonucleotide array (genechip) of gene expression during megakaryocytic differentiation; conditions: K562 cells treated with 50 μg/ml vs undifferentiated cells
Protocol: (§2) The OP9 stromal cell line was aliquoted into 6-well culture plate at a density of 1×10^5/well, and cultured for 24 hrs as a monolayer in a-MEM supplemented with 20% heat-inactivated FBS, 0.5% penicillin/streptomycin and 1.5 g/L sodium bicarbonate. When the OP9 stromal cell line was cultured as a monolayer, the K562 cells were aliquoted upper the OP9 cells at a density of 1×10^5/well, and cocultured with the OP9 cells. These K562 cells were treated with (R)-NALPLE (see Korean Patent No. 10-0688261) at a concentration of 50 μg/ml to induce megakaryocytic differentiation.
mRNAs were extracted from normal K562 cells and compound-treated K562 cells by the method of Example 5. To understand the genetic events during megakaryocytic development, the K562 cells were incubated for 6, 12, 24, 48, 72, 96, and 120 hr with the compound, and mRNAs were extracted from each cell using an RNeasy mini kit (Qiagen, USA). A genechip analysis was performed using 1 μg of RNA and an oligonucleotide array from Macrogen.
From analyzed data, total 67 genes, of which expression levels were increased more than 5-fold in differentiated K562 cells, were assigned. The functional categories included transcription factor, receptor, miscellaneous function, select calcium binding protein, phosphatase, signaling molecule, select regulatory factor, protease, nucleic acid binding, cytoskeleton protein, kinase, cell adhesion molecule, transferase, synthase, hydrolase defense/immunity and molecular function unclassified. Among these genes, selected were 4 genes of which expression levels were increased more 10 fold in differentiated cells, such as KLF2 (Kiruppel-like factor2), LOC138255 (OTTHUMP00000021439), GDF15 (growth differentiation factor 15) and INHBE (inhibin, betaE).

K562 cells [4] = assay: Polyploidization (FACS) and morphology of shRNA-transfected K562 cells cocultured on OP9 in (R)-NALPCE; conditions: 50 μg/mL for 4 days, cocultured on OP9, FIG. 4
Protocol: To confirm whether the selected genes regulate the differentiation into megakaryocyte and platelets, shRNAs capable of inhibiting expressions of the KLF2, LOC138255, GDF15, and INHBE genes were constructed, and K562 cells were transfected with shRNAs.
The transfected K562 cells were sorted by FACS Aria flow cytometer, and cocultured upper OP9 stromal cells in 50 μg/mL of (R)-NALPCE for 4 days. Then, the cells were analyzed with a fluorescence-activated cell sorter using Cell quest, and photographed by Mag. ×200. Results are means±SD (n=3). Similar results were obtained in three independent experiments (FIG. 4).

K562 cells [5] = assay: RT-PCR of KLF2, LOC138255, GDF15 and INHBE mRNA during megakaryocytic development; conditions: 50 μg/ml, incubated 6, 12, 24, 48, 72, 96 and 120 hr, FIG. 3
Protocol: as §2
To analyze the expression patterns of the selected 4 genes, KLF2, LOC138255, GDF15, and INHBE during megakaryocytic development, RT-PCR was performed to measure the mRNA level in cells.
In order to specifically analyze their expression patterns during megakaryocytic development, the K562 cells were incubated for 6, 12, 24, 48, 72, 96, and 120 hr with the compound ((R)-NALPLE 50 μg/ml). Total cellular RNA was extracted from the K562 cells using an RNeasy mini kit following the manufacturer's instructions using M-MLV Reverse Transcriptase (Promega, Madison, Wis.), and RT-PCR was performed.
Amplification conditions were followed by 20 cycles (for GAPDH) or 25 cycles (for KLF2, LOC138255, GDF15, and INHBE) at 95° C. for 30 seconds, 60° C. for 60 seconds, and 72° C. for 90 seconds. The primers used were the following: • KLF2 forward primer (SEQ ID NO.1): 5′-[…]-3′ • reverse primer (SEQ ID NO.2);5′-CATGTGCCGTTTCATGTGC-3′ • LOC138255 forward primer )SEQ ID NO.3); 5′-[…]-3′ • reverse primer )SEQ ID NO. 4);5′-[…]-3′ • GDF15 forward primer 9SEQ ID NO. 5); 5′-[…]-3′ • reverse primer (SEQ ID NO. 6): 5′-[…]-3′ • INHBE forward primer (SEQ ID NO. 7); 5′-[…]-3′ • reversre primer (SEQ ID NO. 8);5′[…]-3′ • GARDH forward primer (SEQ ID NO. 9);5′-[…]-3′ • reverse primer (SEQ ID NO. 10);5′-[…]-3′
After PCR reaction, each reaction mixture was analyzed by 1% agarose gel electrophoresis, and the bands were visualized by ethidium bromide staining (FIG. 3).

Molecule	morphological change (morphological feature of megakaryocytes) ([1]; 45 μg/ml, after 8 days, cocultured with OP9 cells, photographed Mag. x200, FIG. 1)	polyploidization (FACS, propidium iodide) ([1]; 45 μg/ml, cocultured with OP9 cells, FIG. 1)	megakaryocytic differentiation together with CC200, compared to each single treatment ([1]; addition of compound to CC200 (rhTPO 50 ng/ml, rhSCF 50 ng/ml, IL-3 10 ng/ml))	megakaryocytic differentiation together with Megacult-C, compared to each single treatment ([1]; addition of compound to Megacult-C (TPO 5 ng/ml, IL-3 1 ng/ml, IL-6 2 ng/ml))	expression level of CD41 or CD61, CC200 together with the compound vs single treatment of CC200 ([2]; 35 ug/ml plus CC200, after 8 days)	expression level of CD41 or CD61, megacult-C together with the compound vs single treatment of megacult-C ([2]; 35 ug/ml plus Megacult-C (TPO 5 ng/ml), after 8 days)	expression level of megakaryocyte-specific marker CD41 or CD61, compared with cells treated with CC200 or megacult-C ([2]; single treatment 35 ug/ml, after 8 days)	GDF15 expression increase in differentiated cells (oligonucleotide array) (K562 cells [3])	INHBE expression increase in differentiated cells (oligonucleotide array) (K562 cells [3])	KLF2 expression increase in differentiated cells (oligonucleotide array) (K562 cells [3])	LOC138255 expression increase in differentiated cells (oligonucleotide array) (K562 cells [3])	polyploidization of non-transfected K562 cells (K562 cells [4])	GDF15 gene expression pattern (RT-PCR) (K562 cells [5])	INHBE gene expression pattern (RT-PCR) (K562 cells [5])	KLF2 gene expression pattern (RT-PCR) (K562 cells [5])	LOC138255 gene expression pattern (RT-PCR) (K562 cells [5])
CCCCCCCCCCCCCCCCCC(=O)N[C@H](COP(=O)([O-])OCC[N+](C)(C)C)C(=O)OC [compound of Formula 1, N-steroyl-O-phosphocholine-D-serine methyl ester]	increase in cytoplasmic mass and cell size	high nucleus number due to polyploidization through endomitosis	more induced megakaryocytic differentiation	more induced megakaryocytic differentiation	higher	higher	higher	> 10 fold	> 10 fold	> 10 fold	> 10 fold	high nucleus number due to polyploidization through the endomitosis	–	–	–	–
N-steroyl-O-phosphocholine-D-serine methyl ester [compound of Formula 1]	–	–	–	–	–	–	–	–	–	–	–	–	markedly expressed at 12 to 96 hr	markedly expressed at 12 to 96 hr	markedly expressed at 12 to 96 hr	markedly expressed at 12 to 96 hr
